The source made the active and inactive calls.
Assays:
[1] = molecular target: T1, Zinc finger protein mex-5 (Caenorhabditis elegans, UniProt Q9XUB2); experiment: MEX-5/TCR-2 RNA interaction inhibitors, dose response, biochemical, C. elegans, fluorescence polarization (AID 1960)
T1 sequence (Q9XUB2 whole entry): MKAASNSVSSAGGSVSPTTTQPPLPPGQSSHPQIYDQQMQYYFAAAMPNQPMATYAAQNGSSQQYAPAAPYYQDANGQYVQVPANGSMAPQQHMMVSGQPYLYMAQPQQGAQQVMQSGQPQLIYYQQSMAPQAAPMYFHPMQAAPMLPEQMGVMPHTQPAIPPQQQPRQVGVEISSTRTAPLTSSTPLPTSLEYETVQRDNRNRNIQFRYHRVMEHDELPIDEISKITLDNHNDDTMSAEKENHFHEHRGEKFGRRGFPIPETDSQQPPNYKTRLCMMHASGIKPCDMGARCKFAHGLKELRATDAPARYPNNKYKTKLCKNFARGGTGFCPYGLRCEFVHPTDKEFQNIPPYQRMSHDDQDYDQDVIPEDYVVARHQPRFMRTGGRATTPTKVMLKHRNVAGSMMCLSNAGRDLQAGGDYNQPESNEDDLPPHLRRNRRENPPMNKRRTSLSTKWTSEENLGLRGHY

[2] = molecular target: T2, RNA-binding protein pos-1 (Caenorhabditis elegans, UniProt G5EF15); experiment: inhibitors of POS-1/mex-3 RNA binding, dose response, biochemical, fluorescence polarization (AID 1964);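 note: purified POS-1 fused to maltose binding protein made in E. coli; potency of compounds blocking POS-1 binding to fluorescent RNA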
T2 sequence (G5EF15 whole entry): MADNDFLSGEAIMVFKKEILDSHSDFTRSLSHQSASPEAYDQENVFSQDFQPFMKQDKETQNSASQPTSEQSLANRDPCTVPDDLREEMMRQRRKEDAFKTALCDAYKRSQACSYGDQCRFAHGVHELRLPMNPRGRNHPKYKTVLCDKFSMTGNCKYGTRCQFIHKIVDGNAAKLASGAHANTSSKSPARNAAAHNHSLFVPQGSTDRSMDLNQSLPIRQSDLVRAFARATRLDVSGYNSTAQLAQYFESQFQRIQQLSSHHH

[3] = molecular target: T3, Endoribonuclease toxin MazF (Escherichia coli K-12, UniProt P0AE70); experiment: MazF toxin RNase activators, dose response, biochemical, fluorescence, single-stranded RNA substrate, uHTS hits (AID 588481); format: functional
T3 sequence (P0AE70 whole entry): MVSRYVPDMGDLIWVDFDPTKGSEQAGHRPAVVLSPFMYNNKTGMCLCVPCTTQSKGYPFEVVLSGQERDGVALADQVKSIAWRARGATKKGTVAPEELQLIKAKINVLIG

[4] = molecular target: T3, Endoribonuclease toxin MazF; experiment: fluorescent RNA oligo signal without MazF, dose response, counter-screen for MazEF activator project, biochemical, fluorescence, single-stranded RNase substrate (AID 588502); format: functional
[5] = cells
[6] = HEp-2 cell cytotoxicity, dose response, cytotoxicity control for RSV inhibitor project, HTS (AID 2410); format: functional; settings: human respiratory syncytial virus
[7] = A cytotoxicity screen of small molecule inhibitors of the PhoP region in Salmonella typhi identified in the primary screen. [Related pubchem assays: 1850, 1864, 1985 ]; format: functional
[8] = molecular target: T4, DNA repair protein RAD52 homolog (Homo sapiens, UniProt P43351); format: functional, biochemical
T4 sequence (P43351 whole entry): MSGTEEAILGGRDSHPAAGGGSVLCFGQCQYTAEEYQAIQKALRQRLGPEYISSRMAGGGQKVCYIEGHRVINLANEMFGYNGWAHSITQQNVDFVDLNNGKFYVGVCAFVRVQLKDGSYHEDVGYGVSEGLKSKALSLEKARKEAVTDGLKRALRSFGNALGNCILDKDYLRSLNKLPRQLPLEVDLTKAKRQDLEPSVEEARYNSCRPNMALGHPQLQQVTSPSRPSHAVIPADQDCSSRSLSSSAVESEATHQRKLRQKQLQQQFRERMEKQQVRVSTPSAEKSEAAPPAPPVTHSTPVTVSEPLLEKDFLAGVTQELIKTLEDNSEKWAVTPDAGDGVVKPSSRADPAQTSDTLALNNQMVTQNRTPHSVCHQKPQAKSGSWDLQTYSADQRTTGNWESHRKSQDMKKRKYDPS

[9] = molecular target: 72 kDa type IV collagenase (Homo sapiens, UniProt P08253); experiment: Dose Response validation of uHTS RPN11 inhibitor hits using a MMP-2 Fluorescence assay.; format: functional
[10] = molecular target: 26S proteasome non-ATPase regulatory subunit 14 (Homo sapiens, UniProt O00487); experiment: inhibition of proteasome subunit RPN11 – biochemical, fluorescence polarization, uHTS hits, confirmation (AID 602368); format: functional
[11] = molecular target: Prothrombin (Bos taurus, UniProt P00735); experiment: thrombin inhibition, dose response, biochemical, fluorescence polarization, uHTS hits (AID 602369); format: functional
[12] = molecular target: Cytochrome P450 3A4 (Homo sapiens, UniProt P08684); settings: Potency;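 note: confirmatory qHTS run detecting inhibitors and substrates of CYP3A4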
[13] = molecular target: Beta-galactosidase (Escherichia coli, UniProt Q8VNN2); experiment: PubChem AID 485352; format: functional
[14] = molecular target: T5, Type-1 angiotensin II receptor (Homo sapiens, UniProt P30556); experiment: AT1 receptor antagonists, dose response, selectivity assay for APJ receptor antagonist project, cell-based, uHTS hits (AID 463214); format: functional;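 note: antagonist potency against angiotensin II stimulated AT1 response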
T5 sequence (P30556 whole entry): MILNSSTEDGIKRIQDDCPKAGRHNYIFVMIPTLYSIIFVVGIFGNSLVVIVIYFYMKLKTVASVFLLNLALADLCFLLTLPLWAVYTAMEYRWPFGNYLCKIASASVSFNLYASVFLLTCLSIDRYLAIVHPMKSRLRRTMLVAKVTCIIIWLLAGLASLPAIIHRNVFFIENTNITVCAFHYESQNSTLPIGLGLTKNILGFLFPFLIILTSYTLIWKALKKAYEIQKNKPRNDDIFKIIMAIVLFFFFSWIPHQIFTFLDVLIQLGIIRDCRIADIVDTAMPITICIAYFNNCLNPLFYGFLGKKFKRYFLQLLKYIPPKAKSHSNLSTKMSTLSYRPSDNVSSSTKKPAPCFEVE

[15] = NIH-3T3 fibroblast cytotoxicity, dose response, cytotoxicity control, cell-based, fluorescence, Alamar Blue, secondary assay (AID 2327); format: functional;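 note: NIH-3T3 mouse fibroblasts cultured with fluconazole at 8 µg/mL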
[16] = microbe, parasite or virus in culture; format: functional; settings: Mycobacterium tuberculosis
[17] = C. albicans growth with fluconazole, confirmation, fluorescence, retest (AID 2467); format: functional, cell-based
[18] = molecular target: Voltage-dependent T-type calcium channel subunit alpha-1H (Homo sapiens, UniProt O95180); format: functional;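 note: channel activity triggered by adding a high calcium stimulation buffer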
[19] = system: SN12K1; experiment: cells; format: functional; settings: Homo sapiens
[20] = system: P388/ADR; experiment: cells; format: functional; settings: Mus musculus
[21] = system: P388; experiment: cells; format: functional; settings: Mus musculus
[22] = system: Streptococcus sp. 'group A'; experiment: growth inhibition of control SK(-) GAS strain, dose response, counter-screen for streptokinase expression inhibitor project, luminescence, kanamycin, BacTiterGlo, confirmation (AID 1900); format: functional, organism-based
[23] = system: Streptococcus; experiment: Group A Streptococcus viability loss, dose response, counter-screen for streptokinase expression inhibitor project, luminescence, BacTiterGlo (AID 1915); format: functional, organism-based;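 note: potency for reduction of bacterial viability or growth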

Cytochrome P450 3A4, sequence (P08684 whole entry): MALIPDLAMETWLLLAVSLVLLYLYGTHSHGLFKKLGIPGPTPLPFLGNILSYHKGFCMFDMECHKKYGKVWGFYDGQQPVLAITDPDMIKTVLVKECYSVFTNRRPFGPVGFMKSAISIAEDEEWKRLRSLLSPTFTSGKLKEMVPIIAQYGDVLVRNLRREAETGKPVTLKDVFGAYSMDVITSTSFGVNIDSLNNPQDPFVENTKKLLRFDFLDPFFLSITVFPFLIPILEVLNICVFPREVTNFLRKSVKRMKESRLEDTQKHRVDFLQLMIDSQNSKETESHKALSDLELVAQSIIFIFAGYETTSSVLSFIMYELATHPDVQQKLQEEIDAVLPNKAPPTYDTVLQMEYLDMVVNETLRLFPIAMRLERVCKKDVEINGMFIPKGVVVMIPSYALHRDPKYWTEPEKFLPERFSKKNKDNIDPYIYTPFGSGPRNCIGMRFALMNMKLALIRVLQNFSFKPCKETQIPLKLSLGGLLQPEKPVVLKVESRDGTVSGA
Voltage-dependent T-type calcium channel subunit alpha-1H, sequence (O95180 whole entry): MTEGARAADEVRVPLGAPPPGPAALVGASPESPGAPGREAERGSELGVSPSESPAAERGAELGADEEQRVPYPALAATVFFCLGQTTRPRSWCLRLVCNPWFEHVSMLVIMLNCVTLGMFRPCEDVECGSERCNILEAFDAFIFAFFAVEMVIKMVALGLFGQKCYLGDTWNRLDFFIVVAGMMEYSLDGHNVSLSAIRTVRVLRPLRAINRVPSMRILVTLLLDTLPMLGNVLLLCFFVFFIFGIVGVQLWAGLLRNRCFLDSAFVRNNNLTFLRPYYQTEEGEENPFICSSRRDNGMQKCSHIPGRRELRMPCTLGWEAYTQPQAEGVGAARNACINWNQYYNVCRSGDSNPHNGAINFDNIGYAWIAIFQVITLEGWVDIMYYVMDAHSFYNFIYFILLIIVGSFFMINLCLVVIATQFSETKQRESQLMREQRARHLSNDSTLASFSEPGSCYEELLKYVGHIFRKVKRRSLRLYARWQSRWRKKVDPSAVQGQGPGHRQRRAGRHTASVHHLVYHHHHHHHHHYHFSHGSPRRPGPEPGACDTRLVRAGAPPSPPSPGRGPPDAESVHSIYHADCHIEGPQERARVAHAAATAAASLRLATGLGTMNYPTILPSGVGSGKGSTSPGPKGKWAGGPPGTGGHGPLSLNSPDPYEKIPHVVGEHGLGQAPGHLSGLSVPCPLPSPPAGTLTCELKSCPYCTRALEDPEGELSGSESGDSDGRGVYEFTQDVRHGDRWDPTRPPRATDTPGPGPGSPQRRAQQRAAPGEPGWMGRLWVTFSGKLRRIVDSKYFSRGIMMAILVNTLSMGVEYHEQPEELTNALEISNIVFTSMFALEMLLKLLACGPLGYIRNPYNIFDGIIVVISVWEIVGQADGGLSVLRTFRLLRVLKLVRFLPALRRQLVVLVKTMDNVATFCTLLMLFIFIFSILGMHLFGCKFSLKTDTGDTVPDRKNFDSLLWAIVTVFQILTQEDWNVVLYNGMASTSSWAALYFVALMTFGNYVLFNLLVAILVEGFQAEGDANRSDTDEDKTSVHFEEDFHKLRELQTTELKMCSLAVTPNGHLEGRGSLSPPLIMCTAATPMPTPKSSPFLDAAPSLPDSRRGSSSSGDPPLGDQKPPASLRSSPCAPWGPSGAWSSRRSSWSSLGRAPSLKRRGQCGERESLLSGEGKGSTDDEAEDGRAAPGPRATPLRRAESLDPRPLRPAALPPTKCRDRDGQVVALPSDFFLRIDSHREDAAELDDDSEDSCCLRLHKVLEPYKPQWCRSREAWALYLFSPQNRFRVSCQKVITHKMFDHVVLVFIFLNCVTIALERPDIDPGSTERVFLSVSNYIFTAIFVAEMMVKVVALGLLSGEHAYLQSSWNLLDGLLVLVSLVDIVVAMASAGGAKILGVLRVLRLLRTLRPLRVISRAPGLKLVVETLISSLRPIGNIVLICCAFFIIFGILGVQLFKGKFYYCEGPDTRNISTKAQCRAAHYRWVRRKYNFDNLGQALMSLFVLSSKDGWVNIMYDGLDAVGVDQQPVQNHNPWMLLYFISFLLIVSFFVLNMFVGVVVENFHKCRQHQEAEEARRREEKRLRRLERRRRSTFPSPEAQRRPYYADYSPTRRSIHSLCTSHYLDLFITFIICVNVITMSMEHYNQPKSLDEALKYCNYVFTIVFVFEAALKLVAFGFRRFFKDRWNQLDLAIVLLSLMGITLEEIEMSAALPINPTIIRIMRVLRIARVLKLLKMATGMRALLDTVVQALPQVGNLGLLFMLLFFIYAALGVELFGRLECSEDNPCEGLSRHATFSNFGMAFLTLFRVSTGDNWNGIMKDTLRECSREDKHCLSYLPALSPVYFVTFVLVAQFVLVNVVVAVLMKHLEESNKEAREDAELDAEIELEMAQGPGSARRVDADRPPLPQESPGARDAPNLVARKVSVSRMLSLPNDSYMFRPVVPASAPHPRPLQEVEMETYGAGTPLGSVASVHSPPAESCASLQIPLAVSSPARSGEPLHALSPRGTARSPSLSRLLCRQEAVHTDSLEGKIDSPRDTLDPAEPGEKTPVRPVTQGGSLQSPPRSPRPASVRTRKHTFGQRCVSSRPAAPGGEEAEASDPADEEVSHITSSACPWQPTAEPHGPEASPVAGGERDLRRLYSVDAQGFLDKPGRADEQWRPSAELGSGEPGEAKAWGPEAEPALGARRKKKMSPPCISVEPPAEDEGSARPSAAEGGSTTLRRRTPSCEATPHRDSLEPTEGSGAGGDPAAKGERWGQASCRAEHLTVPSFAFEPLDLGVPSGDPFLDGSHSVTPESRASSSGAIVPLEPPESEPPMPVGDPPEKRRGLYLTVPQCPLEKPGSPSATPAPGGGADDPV
Beta-galactosidase, sequence (Q8VNN2 whole entry): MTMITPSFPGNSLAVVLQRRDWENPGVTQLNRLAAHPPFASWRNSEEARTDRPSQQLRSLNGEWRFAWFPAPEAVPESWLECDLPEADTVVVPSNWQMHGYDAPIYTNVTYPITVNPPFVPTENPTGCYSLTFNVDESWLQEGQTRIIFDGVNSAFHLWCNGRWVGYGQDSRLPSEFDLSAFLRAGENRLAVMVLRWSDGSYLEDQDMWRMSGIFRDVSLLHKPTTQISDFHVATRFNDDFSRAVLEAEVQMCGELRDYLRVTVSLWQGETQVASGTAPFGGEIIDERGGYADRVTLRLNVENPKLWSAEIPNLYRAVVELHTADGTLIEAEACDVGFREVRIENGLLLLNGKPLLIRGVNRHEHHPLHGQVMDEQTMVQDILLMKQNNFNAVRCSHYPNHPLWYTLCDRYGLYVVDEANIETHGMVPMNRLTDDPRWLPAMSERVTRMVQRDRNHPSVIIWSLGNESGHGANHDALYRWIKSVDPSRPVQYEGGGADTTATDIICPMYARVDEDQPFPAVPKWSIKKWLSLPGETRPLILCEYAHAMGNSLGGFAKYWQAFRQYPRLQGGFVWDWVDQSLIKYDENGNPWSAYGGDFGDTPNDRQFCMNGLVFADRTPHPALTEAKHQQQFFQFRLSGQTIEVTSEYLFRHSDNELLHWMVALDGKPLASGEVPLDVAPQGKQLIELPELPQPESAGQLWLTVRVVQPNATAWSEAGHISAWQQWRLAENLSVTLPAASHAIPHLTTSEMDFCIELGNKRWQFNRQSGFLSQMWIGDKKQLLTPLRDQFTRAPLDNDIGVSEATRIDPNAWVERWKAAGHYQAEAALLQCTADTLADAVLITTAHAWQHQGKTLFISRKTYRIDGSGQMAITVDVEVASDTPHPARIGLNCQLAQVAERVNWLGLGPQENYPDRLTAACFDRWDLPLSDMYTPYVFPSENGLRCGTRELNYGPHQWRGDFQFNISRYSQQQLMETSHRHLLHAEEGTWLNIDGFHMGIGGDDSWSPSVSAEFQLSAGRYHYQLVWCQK
26S proteasome non-ATPase regulatory subunit 14, sequence (O00487 whole entry): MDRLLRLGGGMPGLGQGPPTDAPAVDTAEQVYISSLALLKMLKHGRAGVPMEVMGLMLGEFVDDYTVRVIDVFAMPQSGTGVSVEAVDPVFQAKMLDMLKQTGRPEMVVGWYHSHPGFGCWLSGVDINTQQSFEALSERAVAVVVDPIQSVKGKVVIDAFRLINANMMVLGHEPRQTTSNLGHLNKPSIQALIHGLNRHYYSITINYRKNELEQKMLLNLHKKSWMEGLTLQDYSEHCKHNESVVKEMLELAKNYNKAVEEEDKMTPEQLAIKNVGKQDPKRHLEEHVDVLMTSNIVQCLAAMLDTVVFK
72 kDa type IV collagenase, sequence (P08253 whole entry): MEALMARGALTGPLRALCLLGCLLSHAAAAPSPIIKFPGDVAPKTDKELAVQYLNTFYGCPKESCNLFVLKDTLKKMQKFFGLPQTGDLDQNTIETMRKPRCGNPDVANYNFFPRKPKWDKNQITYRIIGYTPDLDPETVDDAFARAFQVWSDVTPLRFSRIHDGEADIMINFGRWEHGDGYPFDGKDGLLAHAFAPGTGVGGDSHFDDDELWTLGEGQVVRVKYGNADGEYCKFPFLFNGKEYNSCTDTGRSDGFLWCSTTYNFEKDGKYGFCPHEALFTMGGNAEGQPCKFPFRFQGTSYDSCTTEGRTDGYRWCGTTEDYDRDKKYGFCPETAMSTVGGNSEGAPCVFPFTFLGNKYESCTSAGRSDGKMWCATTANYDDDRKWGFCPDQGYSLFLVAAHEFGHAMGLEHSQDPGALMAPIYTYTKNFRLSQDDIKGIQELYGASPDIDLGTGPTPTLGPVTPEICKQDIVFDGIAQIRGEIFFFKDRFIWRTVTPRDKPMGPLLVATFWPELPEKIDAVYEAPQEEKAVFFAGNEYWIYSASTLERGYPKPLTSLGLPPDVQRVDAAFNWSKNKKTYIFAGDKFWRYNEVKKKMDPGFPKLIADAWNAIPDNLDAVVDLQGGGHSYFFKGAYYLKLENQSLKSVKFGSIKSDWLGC

O=c1oc2ccccc2cc1-c1nc(-c2cccs2)cs1
EC50 [1]: 5.43 µM (active)
EC50 [2]: 15.6 µM (inconclusive)
EC50 [3]: > 99 µM (inactive)
EC50 [4]: > 99 µM (inactive)

CC(=O)c1ccc(N2CCN(Cc3nc4ccccc4[nH]3)CC2)cc1
IC50 [5]: 10.8 µM (active)
CC50 [6]: > 50 µM (active)

COc1ccc(C)cc1NC(=O)C1CCN(S(=O)(=O)c2c(C)noc2C)CC1
EC50 [7]: > 50 µM (active)

NS(=O)(=O)c1ccc(CNC(=O)COc2ccc3c4c(c(=O)oc3c2)CCCC4)cc1
EC50 [3]: > 99 µM (inactive)
EC50 [4]: > 99 µM (inactive)

C#CCN1C(=O)S/C(=C\c2ccc(N3CCOCC3)cc2C)C1=O
EC50 [3]: > 99 µM (inactive)
EC50 [4]: > 99 µM (inactive)

Cc1cc(C)c2nc3nc(C)c(C)cc3c(N)c2c1
AC50 [8]: 1.56 µM (active)

CCN(CC)CCOC(=O)c1ccc(NC=C2C(=O)NC(=O)NC2=O)cc1
IC50 [9]: > 100 µM (inactive)
IC50 [10]: 22.4 µM (active)
IC50 [11]: 32.4 µM (active)

CC(=O)OCC1OC(C#CCC2CCCCC2)C=CC1OC(C)=O (centres undefined)
AC50 [12]: 3.16 µM (inconclusive)

CCc1ccccc1Nc1nc(N)nc(COC(=O)c2cccn2C)n1
IC50 [5]: 13 µM (active)
CC50 [6]: 17.3 µM (active)

Cc1cccc2c1N(CCCOc1ccccc1)C(=O)C2=O
EC50 [13]: > 40 µM (inactive)
IC50 [14]: > 40 µM (not active)

Cc1ccc(C(=O)N/C(=C\c2ccc(C(C)C)cc2)C(=O)NCCCN2CCOCC2)cc1
IC50 [5]: 14.6 µM (active)

Cc1ccc(C(=O)N/C(=C/c2ccc(-c3cc(C(F)(F)F)ccc3Cl)o2)C(=O)NCc2cccnc2)cc1
EC50 [15]: 21.4 µM (active)
CC50 [16]: > 40 µM (active)
EC50 [17]: > 38 µM (not active)

O=[N+]([O-])c1cc(C(F)(F)F)ccc1NCC1CCCO1 (centres undefined)
EC50 [3]: > 99 µM (inactive)
EC50 [4]: > 99 µM (inactive)

COc1ccc(N(C(=O)Cn2cnc3ccccc32)C(C(=O)NC2CCCCC2)c2ccccc2)cc1 (centres undefined)
EC50 [18]: 4.82 µM (active)

O=C(/C=C/c1ccc(Cl)cc1)c1cccs1
AC50 [12]: 25.1 µM (inconclusive)

CC(Nc1cccc2ccccc12)C(=O)N/N=C/c1ccc([N+](=O)[O-])cc1 (centres undefined)
IC50 [5]: 22.1 µM (active)
CC50 [6]: 21.8 µM (active)

Clc1ccc2c(NCc3ccccn3)ccnc2c1
EC50 [7]: > 50 µM (active)

CCC1(c2ccc(N)cc2)CCC(=O)NC1=O (centres undefined) [AMINOGLUTETHIMIDE]
GI50 [19]: 1690 µM (inactive)
GI50 [20]: 1610 µM (inactive)
AC50 [12]: 31.6 µM (inconclusive)
GI50 [21]: 2390 µM (inactive)

O=C(O)c1cc(O)c2c(c1)C(=O)c1cc(O)cc(O)c1C2=O [EMODIC ACID]
AC50 [12]: 15.8 µM (inconclusive)

CC(C)=CCc1c2c(c3occ(-c4ccc(O)cc4)c(=O)c3c1O)C=CC(C)(C)O2 [OSAJIN]
AC50 [12]: 25.1 µM (inconclusive)
EC50 [22]: 1.11 µM (active)
EC50 [23]: 1.47 µM (active)
